# Assay results published in publication PMC7529893, “Structural basis for substrate recognition and chemical inhibition of oncogenic MAGE ubiquitin ligases” (Nature Communications, 2020).
# Biological target: T1, MAGE-A11:PCF11 interaction (GST-MAGE-A11 and FAM-PCF11_4) (Homo sapiens, UniProt P43364)
# T1 construct: GST-MAGE-A11 MHD (human MAGE-A11 MHD amino acid 218-429); made in house; host or cells: E. coli BL21(DE3)
# T1 sequence (P43364 218-429): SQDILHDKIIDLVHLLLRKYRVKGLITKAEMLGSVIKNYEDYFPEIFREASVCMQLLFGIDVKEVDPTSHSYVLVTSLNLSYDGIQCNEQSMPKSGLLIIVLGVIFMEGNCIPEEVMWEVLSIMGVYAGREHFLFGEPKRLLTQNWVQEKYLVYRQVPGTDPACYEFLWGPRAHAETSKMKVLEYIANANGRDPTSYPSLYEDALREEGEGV
# Assay: TR-FRET primary / single point screen at 15 µM
# Format: binding
# Conditions: single point TR-FRET screening of 797 quinoline compounds against MAGE-A11:PCF11
# Outline: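 TR-FRET 520/490 nm emission ratio was read after 90 min at room temperature. Wells held 5 nM GST-MAGE-A11, 5 nM Tb-anti-GST, 200 nM FAM-PCF11_4 and 15 µM compound in Tris pH 7.5 buffer with MgCl2, BSA and DTT. %Inhibition was scaled to DMSO and minus-MAGE-A11 controls.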
row,SMILES,percent inhibition (TR-FRET)
1,CCOc1ccc2ncc(C(=O)c3ccc(C)cc3)c(N3CCN(CC)CC3)c2c1 [SJ000247284],-14.2514
2,CN1CCN(c2c(S(=O)(=O)c3ccc(Cl)cc3)cnc3ccccc23)CC1 [SJ000247306],-10.1441
3,CCc1ccc2ncc(S(=O)(=O)c3ccc(C)c(C)c3)c(N3CCN(C)CC3)c2c1 [SJ000247332],2.973
4,COc1ccc2ncc(S(=O)(=O)c3ccc(C)c(C)c3)c(N3CCN(C)CC3)c2c1 [SJ000247333],-8.554
5,CCc1ccc2ncc(S(=O)(=O)c3ccc(C)c(C)c3)c(N3CCN(CC)CC3)c2c1 [SJ000247334],-4.712
6,CCN1CCN(c2c(S(=O)(=O)c3ccc(C)c(C)c3)cnc3ccc(OC)cc23)CC1 [SJ000247335],-4.579
7,CN1CCN(c2c(C(=O)c3ccccc3)cnc3ccc(Cl)cc23)CC1 [SJ000247338],-5.573
8,CCOc1ccc(C(=O)c2cnc3ccc(C)cc3c2N2CCN(CC)CC2)cc1 [SJ000247339],-10.8066
9,Cc1ccc(S(=O)(=O)c2cnc3ccc(F)cc3c2N2CCN(C)CC2)cc1C [SJ000247344],-7.6267
10,CCN1CCN(c2c(S(=O)(=O)c3ccc(C)c(C)c3)cnc3ccc(F)cc23)CC1 [SJ000247345],1.118
11,CCOc1ccc2ncc(S(=O)(=O)c3ccc(C)c(C)c3)c(N3CCN(C)CC3)c2c1 [SJ000247354],-14.0527
12,CCOc1ccc2ncc(S(=O)(=O)c3ccc(C)c(C)c3)c(N3CCN(CC)CC3)c2c1 [SJ000247355],-13.3902
13,CCN1CCN(c2c(C(=O)c3ccccc3)cnc3ccc(OC)cc23)CC1 [SJ000247365],-0.2733
14,CCN1CCN(c2c(S(=O)(=O)c3ccc(Cl)cc3)cnc3ccccc23)CC1 [SJ000247367],-2.261
15,CCc1ccc(S(=O)(=O)c2cnc3ccccc3c2N2CCN(C)CC2)cc1 [SJ000278939],11.585
16,CCOC(=O)c1cnc2ccc(OC)cc2c1N1CCN(C)CC1 [SJ000279507],-2.791
17,CCOC(=O)c1cnc2ccc(OCC)cc2c1N1CCN(C)CC1 [SJ000279526],-7.064
18,CCOC(=O)c1cnc2c(CC)cccc2c1NCCN1CCOCC1 [SJ000279714],-6.103
19,CCOC(=O)c1cnc2ccc(C(=O)O)cc2c1N1CCN(CCO)CC1 [SJ000280902],-0.5958
20,CCOC(=O)c1cnc2c(C(F)(F)F)cccc2c1NCCN1CCOCC1 [SJ000281260],0.8341
21,CCN(CC)CCCC(C)Nc1ccnc2cc(Cl)ccc12 (centres unmarked) [SJ000285185],-2.592
22,CCN(CC)CCCC(C)Nc1c2ccc(Cl)cc2nc2ccc(OC)cc12 (centres unmarked) [SJ000285202],-265.674
23,CCN(CCO)CCCC(C)Nc1ccnc2cc(Cl)ccc12 (centres unmarked) [SJ000286026],3.702
24,Clc1ccc2c(NC3CCN(Cc4ccc(Cl)o4)CC3)ccnc2c1 [SJ000311180],0.6827
25,Oc1ccc(Br)cc1CN1CCC(Nc2ccnc3cc(Cl)ccc23)CC1 [SJ000311181],-1.209

# Second part, the molecule after the results:
row,percent inhibition (TR-FRET),SMILES
1,5.724,CCCN(CCCCNc1ccnc2cc(Cl)ccc12)Cc1cc(Br)ccc1O [SJ000311196]
2,3.903,CCCN(CCCCNc1ccnc2cc(Cl)ccc12)CCCSC [SJ000311197]
3,-0.9977,CCCN(CCCCNc1ccnc2cc(Cl)ccc12)Cc1ccc[nH]1 [SJ000311198]
4,6.494,CCCN(CCCCNc1ccnc2cc(Cl)ccc12)Cc1sccc1C [SJ000311199]
5,12.3053,CCCN(CCCCNc1ccnc2cc(Cl)ccc12)Cc1ccoc1 [SJ000311200]
6,5.3962,CCCN(CCCCNc1ccnc2cc(Cl)ccc12)Cc1cc(F)ccc1OC [SJ000311202]
7,6.844,CCCN(CCCCNc1ccnc2cc(Cl)ccc12)Cc1c(F)cccc1OC [SJ000311203]
8,-3.378,CCCN(CCCCNc1ccnc2cc(Cl)ccc12)Cc1c[nH]c2ccccc12 [SJ000311204]
9,7.684,CCCN(CCCCNc1ccnc2cc(Cl)ccc12)Cc1ccccc1 [SJ000311205]

# Same assay, conditions: single point TR-FRET screening of quinoline compounds against MAGE-A11:PCF11; 15 µM
row,SMILES,percent inhibition (TR-FRET)
1,CCOC(=O)c1cnc2c(Cl)cccc2c1NCCCN1CCOCC1 [SJ000279431],4.102
2,CCOC(=O)c1cnc2ccc(OCC)cc2c1NCCCN1CCOCC1 [SJ000279525],5.532
3,CCOC(=O)c1cnc2c(C)cccc2c1NCCCN1CCOCC1 [SJ000279636],3.353
4,CCOC(=O)c1cnc2ccc(C(=O)OC)cc2c1NCCCN1CCOCC1 [SJ000279665],10.7073
5,CCOC(=O)c1cnc2ccc(F)cc2c1NCCCN1CCOCC1 [SJ000279864],-0.3915
6,Clc1ccc2c(NCCCN(Cc3ccccc3)CC3CC=CCC3)ccnc2c1 (centres unmarked) [SJ000311182],16.0865
7,CC(C)CCN(CCCNc1ccnc2cc(Cl)ccc12)Cc1ccccc1 [SJ000311183],2.673
8,CC(CCN(CCCNc1ccnc2cc(Cl)ccc12)Cc1ccccc1)c1ccccc1 (centres unmarked) [SJ000311184],17.3464
9,FC(F)(F)c1cc(-c2ccc3c(NCCCNCc4ccco4)ccnc3c2)cc(C(F)(F)F)c1 [SJ000311270],59.7059

# Results, then the molecule that gave them:
row,percent inhibition (TR-FRET),SMILES
1,6.554,Cc1ccsc1CNCCCNc1ccnc2cc(Cl)ccc12 [SJ000311189]
2,10.8349,Cc1ccc(CNCCCNc2ccnc3cc(Cl)ccc23)s1 [SJ000311190]
3,14.4758,CCCN(CCCNc1ccnc2cc(Cl)ccc12)Cc1ccc(Br)o1 [SJ000311195]
4,14.5885,c1ccc(Oc2ccc3c(NCCCNCc4ccco4)ccnc3c2)cc1 [SJ000311206]
5,24.558,COc1ccccc1Oc1ccc2c(NCCCNCc3ccco3)ccnc2c1 [SJ000311210]
6,29.109,COc1cccc(Oc2ccc3c(NCCCNCc4ccco4)ccnc3c2)c1 [SJ000311214]
7,36.2507,COc1ccc(Oc2ccc3c(NCCCNCc4ccco4)ccnc3c2)cc1 [SJ000311218]
8,9.365,Fc1ccc(Oc2ccc3c(NCCCNCc4ccco4)ccnc3c2)cc1 [SJ000311222]
9,37.651,Clc1ccc(Oc2ccc3c(NCCCNCc4ccco4)ccnc3c2)cc1 [SJ000311226]
10,63.4168,CN(C)c1cccc(Oc2ccc3c(NCCCNCc4ccco4)ccnc3c2)c1 [SJ000311230]
11,57.5354,CC(C)(C)c1ccc(Oc2ccc3c(NCCCNCc4ccco4)ccnc3c2)cc1 [SJ000311234]
12,27.4287,Fc1ccc(-c2ccc3c(NCCCNCc4ccco4)ccnc3c2)cc1 [SJ000311238]
13,13.0054,CC(C)CCc1ccc2c(NCCCNCc3ccco3)ccnc2c1 [SJ000311246]
14,40.6616,c1coc(CNCCCNc2ccnc3cc(CC4CCCCC4)ccc23)c1 [SJ000311250]
15,15.9461,c1ccc(CCc2ccc3c(NCCCNCc4ccco4)ccnc3c2)cc1 [SJ000311254]
16,8.8745,CC(C)Cc1ccc2c(NCCCNCc3ccco3)ccnc2c1 [SJ000311258]

row,percent inhibition (TR-FRET),SMILES
1,32.9599,c1coc(CNCCCNc2ccnc3cc(C4CCCCC4)ccc23)c1 [SJ000311262]
2,24.558,CCC(CC)c1ccc2c(NCCCNCc3ccco3)ccnc2c1 [SJ000311266]
3,41.5719,c1coc(CNCCCNc2ccnc3cc(-c4cccc5ccccc45)ccc23)c1 [SJ000311274]
4,56.2051,FC(F)(F)c1ccc(-c2ccc3c(NCCCNCc4ccco4)ccnc3c2)cc1 [SJ000311278]
5,28.689,c1ccc(-c2ccc3c(NCCCNCc4ccco4)ccnc3c2)cc1 [SJ000311282]
6,73.499,CC(C)(C)c1ccc(-c2ccc3c(NCCCNCc4ccco4)ccnc3c2)cc1 [SJ000311286]
7,30.7894,c1coc(CNCCCNc2ccnc3cc(-c4ccc5c(c4)OCO5)ccc23)c1 [SJ000311290]
8,7.824,COc1ccc(-c2ccc3c(NCCCNCc4ccco4)ccnc3c2)cc1 [SJ000311294]
9,27.0086,FC(F)(F)c1cccc(Cc2ccc3c(NCCCNCc4ccco4)ccnc3c2)c1 [SJ000311298]
10,20.4271,N#Cc1ccc(Cc2ccc3c(NCCCNCc4ccco4)ccnc3c2)cc1 [SJ000311302]
11,64.537,c1ccc(Cc2ccc3c(NCCCNCc4ccco4)ccnc3c2)cc1 [SJ000311306]
12,23.7879,COc1cc(Cc2ccc3c(NCCCNCc4ccco4)ccnc3c2)cc(OC)c1 [SJ000311310]
13,32.3998,Clc1cccc(Cl)c1Cc1ccc2c(NCCCNCc3ccco3)ccnc2c1 [SJ000311314]
14,39.3055,Cc1cc(C)cc(Cc2ccc3c(NCCCNCc4ccco4)ccnc3c2)c1 [SJ000311318]
15,24.7681,Fc1ccc(Cc2ccc3c(NCCCNCc4ccco4)ccnc3c2)c(Cl)c1 [SJ000311322]
